Source: patent US20210244029A1, “ANTIMICROBIAL COMPOSITIONS” (Aseptic Health, LLC, priority 2019, published 2021)

Tested on: Pseudomonas aeruginosa ATCC 27853
Test: Minimal inhibitory concentration (MIC) by serial 1:2 dilutions
Type: cell-based
Conditions: MIC = greatest dilution at which 100% of a starting culture of 1 × 10^6 bacteria are killed

Sodium Chlorite [0.5% Sodium Chlorite]
MIC against Pseudomonas aeruginosa ATCC 27853: ⅛
